Measured values from patent US4631270A, “Therapeutically useful pseudopeptides, compositions containing the same and methods of preparation and use” (priority 1985, dated 1986).
Like-named read-outs stand apart in the source and are kept apart here.

Experiments:
[1] = system: repair-deficient strains of Bacillus subtilis; experiment: Mutagenicity test, variation of the Ames test (overall result); assay type: cell-based; settings: results of Table 2b
Description: (§1) The mutagenicity of Gly .PSI. Leu and Gly .PSI. Ile was examined by a variation of the Ames test using repair-deficient strains of Bacillus subtilis.
(§2) The specific procedures by which these tests were conducted are described in the following references: […]

Wild type = experiment: Mutagenicity test, growth inhibition, wild type strain; assay type: cell-based, Bacillus subtilis; settings: concentration 0.1 M
Description: as §1, §2

MC-1 = experiment: Mutagenicity test, growth inhibition, strain MC-1; assay type: cell-based, Bacillus subtilis; settings: concentration 0.1 M
Description: as §1, §2

Hcr-9 = experiment: Mutagenicity test, growth inhibition, strain Hcr-9; assay type: cell-based, Bacillus subtilis
Description: as §1, §2

FB-13 = experiment: Mutagenicity test, growth inhibition, strain FB-13; assay type: cell-based, Bacillus subtilis; settings: concentration 0.1 M
Description: as §1, §2

Pol A = experiment: Mutagenicity test, growth inhibition, strain Pol A; assay type: cell-based, Bacillus subtilis; settings: concentration 0.1 M
Description: as §1, §2

Swiss Wistar mice = experiment: Acute toxicity and weight gain of Swiss Wistar mice injected I.P.; assay type: in vivo; settings: dose levels 44-432 mg/Kg, five mice per dose level
Description: One example of the low toxicity of the compounds of this invention is the results achieved with mice on treatment with Gly .PSI. Leu. In the test Swiss Wistar mice were injected I.P. with Gly .PSI. Leu at the dose levels indicated below. Five mice were tested at each dose level. […] The behavior of the animals was observed closely for 7 days after injection.

[2] = system: methionine adenosyl transferase (MAT)
From the text: Possible mutagenic effects of pseudodipeptides were examined two ways. One possible route for a metabolic complication is via the action of methionine adenosyl transferase (MAT). Ethionine (which contains a thiomethylene linkage) is known to be both a carcinogen and a substrate for MAT.

[3] = rapid destruction by proteolysis; cited from earlier work

Row | Molecule | mutagenicity [1] | Growth Inhibition of Bacterial Strains in mm, Wild type (Wild type) [mm] | Growth Inhibition of Bacterial Strains in mm, MC-1 (MC-1) [mm] | Growth Inhibition of Bacterial Strains in mm, Hcr-9 (Hcr-9) [mm] | Growth Inhibition of Bacterial Strains in mm, FB-13 (FB-13) [mm] | Growth Inhibition of Bacterial Strains in mm, Pol A (Pol A) [mm] | signs of acute toxicity (Swiss Wistar mice) | Counts/Min transferred ([2]; Expt I, concentration 12 mM, None = 15,760) | Counts/Min transferred ([2]; Expt II, concentration 80 mM, None = 7,380) | effect on MAT activity ([2]; possible substrate or competitive inhibitor of MAT) | Growth Inhibition of Bacterial Strains in mm, Hcr-9 (Hcr-9; concentration 0.1 M) [mm] | biological half-life [3] [min.]
1 | CC[C@H](C)[C@H](SCCN)C(=O)O [Gly .PSI. Ile] | neither Gly .PSI. Leu nor Gly .PSI. Ile behaves as a mutagen | 0 | 0 | 0 | 0 | 0 |  |  |  |  |  | 
2 | CC(C)CC(SCCN)C(=O)O (centres unmarked) [Gly .PSI. Leu, pseudoglycylleucine] | neither Gly .PSI. Leu nor Gly .PSI. Ile behaves as a mutagen | 0 | 0 |  | 0 | 0 | In no case did any of the mice show any signs of acute toxicity | 16,620 Counts/Min | 7,990 Counts/Min | neither Gly .PSI. Leu nor Gly .PSI. D-Leu has a measurable effect on MAT activity | 0 | 
3 | pGlu-His-Trp-Ser-Tyr-Gly-Leu-Arg-Pro-Gly-NH2 [Luteinizing hormone-releasing hormone] |  |  |  |  |  |  |  |  |  |  |  | 2
